Pest or weed control data for 17 compounds are collected here from patent US8461181B2, “Fused heterocyclic compound and use thereof” (Sumitomo Chemical Company, Ltd., priority 2009, dated 2013).

Format in all cases: in vivo
For assay [1], the system named is Aphis gossypii. Nature of the assay: Test Example 2: foot drench of cucumber seedling on urethane mat, Aphis gossypii. Conditions: soil, 168 h, 5 ml drench at foot of cucumber seedling on urethane mat, inoculated one day after treatment, checked seven days after. The procedure: The formulations of the present active compounds (4), (5), (8), (9), (11), (12), (14), (15), (17), (20), (35) to (45), (48) to (51), (54) to (56), (206), (209) and (211) to (213) obtained by Formulation Example 5 were diluted with water so that the active ingredient concentration was 500 ppm, to prepare diluted solutions for test. Separately, a cucumber seedling (second true leaf spreading stage) planted on a urethane mat was drenched at its foot with each 5 ml of the diluted solutions, and one day after treatment, the cucumber leaf surface was inoculated with 30 Aphis gossypii (whole stage). Further seven days after, the number of insect of living Aphis gossypii […] on the leaves of this cucumber was checked, and the control value was calculated according to the following formula. Control value (%)={1-(Cb×Tai)/(Cai×Tb)}×100 Letters in the formula represent the following meanings. Cb: the number of insect before treatment on non-treated district Cai: the number of insect in observation on non-treated district Tb: the number of insect before treatment on treated district Tai: the number of insect in observation on treated district

Assay [2] deals with Nilaparvata lugens. The assay is described as follows: Test Example 9: foot drench of rice seedling, twenty first instar larvae of Nilaparvata lugens. Conditions: soil, 144 h, 5 ml drench at foot of rice seedling, kept 7 days, twenty first instar larvae released, further 6 days. As for the experimental part: The formulations of the present active compounds (6), (7), (18), (22), (25), (30), (33), (46), (47), (53), (101) to (103), (106), (121) to (124), (126) to (128), (135), (139), (216) and (217) obtained by Formulation Example 5 were diluted with water so that the active ingredient concentration was 500 ppm, to prepare diluted solutions for test. Separately, a rice seedling (2 weeks after sowing, second leaf spreading stage) planted on a plastic cup was drenched at its foot with each 5 ml of the diluted solutions, and kept in a greenhouse of 25° C. for 7 days. Twenty first instar larvae of Nilaparvata lugens were released, and further kept in the greenhouse for 6 days, then, the number of insect of living Nilaparvata lugens […] on rice was checked, and the control value was calculated according to the following formula. Control value (%)={1-(Cb×Tai)/(Cai×Tb)}×100 Letters in the formula represent the following meanings. Cb: the number of insect before treatment on non-treated district Cai: the number of insect in observation on non-treated district Tb: the number of insect before treatment on treated district Tai: the number of insect in observation on treated district

In assay [3] the test system is Nilaparvata lugens. The assay is described as follows: Test Example 8: spray on rice seedling, 20 first instar larvae of Nilaparvata lugens. Conditions: 144 h, 10 ml sprayed on rice seedling, 20 first instar larvae released, 6 days at 25° C. As for the experimental part:
The formulations of the present active compounds (6), (7), (18), (21), (24), (25), (28) to (30), (32), (46), (52), (101) to (103), (105) to (107), (111), (112), (115), (119) to (124), (126) to (130), (133) to (135), (139), (142), (144) to (146), (149) to (151), (153), (154), (216) and (217) obtained by Formulation Example 5 were diluted with water so that the active ingredient concentration was 500 ppm, to prepare spray solutions for test. Separately, on a rice seedling (2 weeks after sowing, second leaf spreading stage) planted on a plastic cup, the drug solutions for test prepared as described above were sprayed each in an amount of 10 ml. After drying of the drug solution sprayed on rice, 20 first instar larvae of Nilaparvata lugens were released, and kept in a greenhouse of 25° C. for 6 days. Thereafter, the number of Nilaparvata lugens […] on rice was checked, and the control value was calculated according to the following formula. Control value (%)={1-(Cb×Tai)/(Cai×Tb)}×100 Letters in the formula represent the following meanings. Cb: the number of insect before treatment on non-treated district Cai: the number of insect in observation on non-treated district Tb: the number of insect before treatment on treated district Tai: the number of insect in observation on treated district

The subject of assay [4] is Aphis gossypii. The assay is described as follows: Test Example 3: root immersion of cucumber seedling, Aphis gossypii. Conditions: 168 h, cucumber root part immersed in 5 ml, inoculated one day after treatment, checked seven days after. As for the experimental part: The formulations of the present active compounds (18), (19), (21), (22), (24), (25), (28), (31) to (34), (46), (47), (52), (53), (101) to (104), (106) to (108), (112) to (114), (117), (118), (122), (123), (126), (128), (129), (133), (134), (138), (144), (153) to (155) and (157) obtained by Formulation Example 5 were diluted with water so that the active ingredient concentration was 500 ppm, to prepare diluted solutions for test. A root part of a cucumber seedling (first true leaf spreading stage) from which soil had been washed off was immersed in 5 ml of this diluted solution, and one day after treatment, the cucumber leaf surface was inoculated with 30 Aphis gossypii (whole stage). Further seven days after, the number of insect of living Aphis gossypii […] on the leaves of this cucumber was checked, and the control value was calculated according to the following formula. Control value (%)={1-(Cb×Tai)/(Cai×Tb)}×100 Letters in the formula represent the following meanings. Cb: the number of insect before treatment on non-treated district Cai: the number of insect in observation on non-treated district Tb: the number of insect before treatment on treated district Tai: the number of insect in observation on treated district

In assay [5] the test system is Aphis gossypii. The assay is described as follows: Test Example 4: foot drench of cucumber seedling in plastic cup, inoculation after 7 days, Aphis gossypii. Conditions: soil, 144 h, 5 ml drench at foot of cucumber seedling in plastic cup, kept 7 days at 25° C., inoculated, further 6 days. The procedure: The formulations of the present active compounds (3) to (7), (17), (19), (20), (22), (29) to (31), (35) to (37), (39), (41) to (45), (47) to (56), (101), (106), (121) to (123), (128), (131), (137), (139), (143), (145), (147), (211) to (213), (216) and (217) obtained by Formulation Example 5 were diluted with water so that the active ingredient concentration was 500 ppm, to prepare diluted solutions for test. Separately, a cucumber seedling (second true leaf spreading stage) planted on a plastic cup was drenched at its foot with each 5 ml of the diluted solutions, and kept in a greenhouse of 25° C. for 7 days. The cucumber leaf surface was inoculated with 30 Aphis gossypii (whole stage), and further kept in the greenhouse for 6 days, then, the number of insect of living Aphis gossypii […] on the leaves of this cucumber was checked, and the control value was calculated according to the following formula. Control value (%)={1-(Cb×Tai)/(Cai×Tb)}×100 Letters in the formula represent the following meanings. Cb: the number of insect before treatment on non-treated district Cai: the number of insect in observation on non-treated district Tb: the number of insect before treatment on treated district Tai: the number of insect in observation on treated district

`Cn1c(-c2ccncc2F)nc2cc(C(F)(F)F)ccc21` [present active compound 4, 2-(3-fluoropyridin-4-yl)-1-methyl-5-trifluoromethyl-1H-benzimidazole] displayed a pest or weed control at 500 ppm in the assay on Aphis gossypii [1] of at least 90%.

The compound `Cn1c(-c2ccncc2Cl)nc2cc(C(F)(F)F)ccc21` [present active compound 5, 2-(3-chloropyridin-4-yl)-1-methyl-5-trifluoromethyl-1H-benzimidazole] displayed a pest or weed control at 500 ppm in the assay with Aphis gossypii [1] of at least 90%.

Turning to `Cc1cnccc1-c1nc2cc(C(F)(F)F)ccc2n1C` [present active compound 6, 1-methyl-2-(3-methylpyridin-4-yl)-5-trifluoromethyl-1H-benzimidazole], the pest or weed control at 500 ppm in the assay on Nilaparvata lugens [2] and with Nilaparvata lugens [3] was at least 90% in each case.

For `CCc1cnccc1-c1nc2cc(C(F)(F)F)ccc2n1C` [present active compound 7, 2-(3-ethylpyridin-4-yl)-1-methyl-5-trifluoromethyl-1H-benzimidazole], the pest or weed control at 500 ppm with Nilaparvata lugens [2] and with Nilaparvata lugens [3] was at least 90% each time.

With `COc1cnccc1-c1nc2cc(C(F)(F)F)ccc2n1C` [present active compound 8, 2-(3-methoxypyridin-4-yl)-1-methyl-5-trifluoromethyl-1H-benzimidazole], the pest or weed control at 500 ppm in the assay with Aphis gossypii [1] was at least 90%.

In the assay with Aphis gossypii [1], `CCOc1cnccc1-c1nc2cc(C(F)(F)F)ccc2n1C` [present active compound 9, 2-(3-ethoxypyridin-4-yl)-1-methyl-5-trifluoromethyl-1H-benzimidazole] yielded a pest or weed control at 500 ppm of at least 90%.

Take `Cn1c(-c2ccncc2OC(C)(C)C)nc2cc(C(F)(F)F)ccc21` [present active compound 12, 2-(3-tert-butoxypyridin-4-yl)-1-methyl-5-trifluoromethyl-1H-benzimidazole]: the pest or weed control at 500 ppm in the assay with Aphis gossypii [1] was at least 90%.

Consider `Cn1c(-c2ccncc2OCC(F)F)nc2cc(C(F)(F)F)ccc21` [present active compound 14, 2-[3-(2,2-difluoroethoxy)-pyridin-4-yl]-1-methyl-5-trifluoromethyl-1H-benzimidazole], for which the pest or weed control at 500 ppm in the assay on Aphis gossypii [1] is at least 90%.

`Cn1c(-c2ccncc2[S+](C)[O-])nc2cc(C(F)(F)F)ccc21` (stereo not drawn) [present active compound 18, 2-(3-methanesulfinylpyridin-4-yl)-1-methyl-5-trifluoromethyl-1H-benzimidazole]: the pest or weed control at 500 ppm in the assay on Aphis gossypii [4], in the assay on Nilaparvata lugens [2] and with Nilaparvata lugens [3] was at least 90% in each case.

As for `CCS(=O)(=O)c1cnccc1-c1nc2cc(C(F)(F)F)ccc2n1C` [present active compound 22, 2-(3-ethanesulfonylpyridin-4-yl)-1-methyl-5-trifluoromethyl-1H-benzimidazole], the pest or weed control at 500 ppm with Aphis gossypii [4], in the assay with Nilaparvata lugens [2] and with Aphis gossypii [5] was at least 90% in each case.

Consider `COCCOc1cnccc1-c1nc2cc(C(F)(F)F)cnc2n1C` [present active compound 46, 2-[3-(2-methoxyethoxy)-pyridin-4-yl]-3-methyl-6-trifluoromethyl-3H-imidazo[4,5-b]pyridine], for which the pest or weed control at 500 ppm with Aphis gossypii [4], with Nilaparvata lugens [2] and in the assay on Nilaparvata lugens [3] was at least 90% throughout.

Consider `CCOCCOc1cnccc1-c1nc2cc(C(F)(F)F)cnc2n1C` [present active compound 47, 2-[3-(2-ethoxyethoxy)-pyridin-4-yl]-3-methyl-6-trifluoromethyl-3H-imidazo[4,5-b]pyridine], for which the pest or weed control at 500 ppm in the assay on Aphis gossypii [4] and in the assay with Nilaparvata lugens [2] was at least 90% throughout.

Turning to `CCS(=O)(=O)c1cnccc1-c1nc2cc(C(F)(F)F)cnc2n1C` [present active compound 53, 2-(3-ethanesulfonylpyridin-4-yl)-3-methyl-6-trifluoromethyl-3H-imidazo[4,5-b]pyridine], the pest or weed control at 500 ppm in the assay on Aphis gossypii [4] and in the assay on Nilaparvata lugens [2] was at least 90% throughout.

In the case of `C#CCSc1cnccc1-c1nc2cc(C(F)(F)F)cnc2n1C` [present active compound 135], in the assay on Nilaparvata lugens [2], the pest or weed control at 500 ppm was at least 90%.

For the compound `CN(C)C(=O)c1cnccc1-c1nc2cc(C(F)(F)F)cnc2n1C` [present active compound 139], the pest or weed control at 500 ppm in the assay on Nilaparvata lugens [2], in the assay with Aphis gossypii [5] and with Nilaparvata lugens [3] was at least 90% throughout.

For `Cc1cnccc1-c1nc2cc(C(F)(F)F)cnc2n1C` [present active compound 216, 3-methyl-2-(3-methylpyridin-4-yl-)-6-trifluoromethyl-3H-imidazo[4,5-b]pyridine], the pest or weed control at 500 ppm with Nilaparvata lugens [2], with Aphis gossypii [5] and with Nilaparvata lugens [3] was at least 90% each time.

With `CCc1cnccc1-c1nc2cc(C(F)(F)F)cnc2n1C` [present active compound 217, 2-(3-ethylpyridin-4-yl-)-3-methyl-6-trifluoromethyl-3H-imidazo[4,5-b]pyridine], the pest or weed control at 500 ppm in the assay on Nilaparvata lugens [2], in the assay with Aphis gossypii [5] and in the assay with Nilaparvata lugens [3] was at least 90% each time.

What is called pest or weed control is the degree to which the test organism was suppressed or injured, in per cent.
